Laboratory results published in US8252273B2, “Ultraviolet absorber” (Lead Chemical Co., Ltd., priority 2007, dated 2012).

Assays:
[1] = Test Example 3: ultraviolet irradiation test (absorption spectra for different irradiation times); type: physicochemical; settings: conclusion for the compounds
Description: Ointments (samples B, C, D and E) prepared in Test Example 1 were interposed between two pieces of synthetic quartz plates to prepare measurement samples.
From a light radiated from a 500 W ultra-high pressure mercury vapor lamp (trade name: USH-500D; manufactured by Ushio Inc.), the visible light was removed through a water filter of 5 cm and an ultraviolet transmitting and visible light-absorbing filter (trade name: UV-D33S; manufactured by AGC Techno Glass Co., Ltd.). Then, each measurement sample was irradiated with ultraviolet rays mostly in the UVA and the UVB ranges. Ultraviolet rays irradiation time was set at 0, 5, 10, 15, 20, 25 and 30 minutes. The results of the test are shown in the ultraviolet absorption spectra of FIG. 4 to FIG. 7.

[2] = Test Example 2: solubility test in organic solvents; type: physicochemical; settings: for Amount of solvent required to dissolve 100 mg of sample / Concentration on dissolving 100 mg of sample: room temperature (23 to 25° C.)
Description: Sample a: the O-tolyl-4-methoxycinnamate compound synthesized in Example 1
Sample b: the Compound of Reference Example 2
The amounts of various organic solvents capable of dissolving 100 mg of each sample at room temperature (23 to 25° C.) were measured. For dissolving the sample, a 50 mL polypropylene conical tube (manufactured by CORNING Inc.) was used, and dissolution was carried out by stirring with a shaker (trade name: Vortex G-56; manufactured by Scientific Ind. Inc.) for 1 minute.

SMILES: CCOc1ccc(/C=C/C(=O)Oc2ccccc2C)cc1 [Example 2, O-tolyl-4-ethoxycinnamate]
- Ultraviolet absorptive capacity (absorption strength) under ultraviolet irradiation in the UVA and the UVB ranges [1]: increases further
- melting point: 108 to 109 °C

SMILES: CCCCC(CC)COC(=O)C=Cc1ccc(OC)cc1 (stereo not drawn) [Reference Example 1, 4-methoxycinnamic acid-2-ethylhexyl, reference compound]
- Ultraviolet absorptive capacity (absorption strength) under ultraviolet irradiation in the UVA and the UVB ranges [1]: decreases or remains the same

SMILES: COc1ccc(/C=C/C(=O)Oc2ccccc2C)cc1 [Example 1, O-tolyl-4-methoxycinnamate]
- Ultraviolet absorptive capacity (absorption strength) under ultraviolet irradiation in the UVA and the UVB ranges [1]: increases further
- Amount of solvent required to dissolve 100 mg of sample ([2]; Acetone): < 1 mL
- Concentration on dissolving 100 mg of sample ([2]; Acetone): (>10)
- Amount of solvent required to dissolve 100 mg of sample ([2]; Ethanol): 10 mL
- Concentration on dissolving 100 mg of sample ([2]; Ethanol): (1)
- Amount of solvent required to dissolve 100 mg of sample ([2]; Ether): 3 mL
- Concentration on dissolving 100 mg of sample ([2]; Ether): (3.3)
- Amount of solvent required to dissolve 100 mg of sample ([2]; Ethyl acetate): < 1 mL
- Concentration on dissolving 100 mg of sample ([2]; Ethyl acetate): (>10)
- Amount of solvent required to dissolve 100 mg of sample ([2]; Isopropyl alcohol): 15 mL
- Concentration on dissolving 100 mg of sample ([2]; Isopropyl alcohol): (0.67)
- Amount of solvent required to dissolve 100 mg of sample ([2]; Methanol): 7.5 mL
- Concentration on dissolving 100 mg of sample ([2]; Methanol): (1.3)
- Amount of solvent required to dissolve 100 mg of sample ([2]; N-methylpyrrolidone): < 1 mL
- Concentration on dissolving 100 mg of sample ([2]; N-methylpyrrolidone): (>10)
- Solubility in organic solvents compared with Reference Example 2 ([2]; almost all the organic solvents tested): better solubility than that of the compound of Reference Example 2
- melting point: 93 to 94 °C

SMILES: COc1ccc(C(=O)CC(=O)c2ccc(C(C)(C)C)cc2)cc1 [Reference Example 2, 4-tert-butyl-4′-methoxy-dibenzoylmethane, reference compound]
- Ultraviolet absorptive capacity (absorption strength) under ultraviolet irradiation in the UVA and the UVB ranges [1]: decreases or remains the same
